From paper PMC3740399, “Carfilzomib in multiple myeloma patients with renal impairment: pharmacokinetics and safety” (Leukemia, 2013)

Assay: Safety: treatment-emergent adverse events (CTCAE Version 3.0)
Format: in vivo, human
Details: for Anemia, Grades 3/4 / Decreased hemoglobin, Grades 3/4 / Dyspnea, Grades 3/4 / Fatigue, Grades 3/4 / Hypokalemia, Grades 3/4 / Lymphopenia, Grades 3/4 / Pain, Grades 3/4 / Pneumonia, Grades 3/4 / Thrombocytopenia, Grades 3/4: number of patients
Procedure: All patients who received at least one dose of carfilzomib were included in the safety population. Incidence, severity and duration of AEs, including all serious AEs and those considered to be treatment related, and shifts to or from abnormal relative to baseline in key laboratory parameters were categorized according to the National Cancer Institute's Common Terminology Criteria for Adverse Events (CTCAE) Version 3.0.[16] […] ECGs were performed in most patients to satisfy regulatory requirements, but were not required by the study protocol.

[1] = Group 1 (normal renal function), n=12
[2] = Group 2 (mild impairment), n=12
[3] = Group 3 (moderate impairment), n=10
[4] = Group 4 (severe impairment), n=8
[5] = Group 5 (chronic dialysis), n=8

With `CC(C)C[C@H](NC(=O)[C@H](CCc1ccccc1)NC(=O)CN1CCOCC1)C(=O)N[C@@H](Cc1ccccc1)C(=O)N[C@@H](CC(C)C)C(=O)[C@@]1(C)CO1` [carfilzomib] as the compound, how does the “Anemia, Grades 3/4” value [1] read?
Its value is 2.

What about the “Decreased hemoglobin, Grades 3/4” value [1] of the same compound?
The value was 1.

What about the “Dyspnea, Grades 3/4” value [1] of the same compound?
The value was 0.

What about the “Fatigue, Grades 3/4” value [1] of the same compound?
The value was 2.

And the “Hypokalemia, Grades 3/4” value [1]?
The value was 1.

And the “Lymphopenia, Grades 3/4” value [1]?
The value was 2.

What about the “Pain, Grades 3/4” value [1] of the same compound?
The value was 0.

What about the “Pneumonia, Grades 3/4” value [1] of the same compound?
Its value is 1.

What about the “Thrombocytopenia, Grades 3/4” value [1] of the same compound?
Its value is 1.

And the “Anemia, Grades 3/4” value [2]?
Its value is 4.

And the “Decreased hemoglobin, Grades 3/4” value [2]?
The value was 0.

And the “Dyspnea, Grades 3/4” value [2]?
Its value is 0.

And the “Fatigue, Grades 3/4” value [2]?
Its value is 1.

What about the “Hypokalemia, Grades 3/4” value [2] of the same compound?
The value was 1.

What about the “Lymphopenia, Grades 3/4” value [2] of the same compound?
The value was 3.

And the “Pain, Grades 3/4” value [2]?
The value was 2.

What about the “Pneumonia, Grades 3/4” value [2] of the same compound?
The value was 1.

And the “Thrombocytopenia, Grades 3/4” value [2]?
The value was 5.

What about the “Anemia, Grades 3/4” value [3] of the same compound?
Its value is 5.

What about the “Decreased hemoglobin, Grades 3/4” value [3] of the same compound?
Its value is 1.

What about the “Dyspnea, Grades 3/4” value [3] of the same compound?
Its value is 2.

What about the “Fatigue, Grades 3/4” value [3] of the same compound?
Its value is 2.

And the “Hypokalemia, Grades 3/4” value [3]?
The value was 0.

What about the “Lymphopenia, Grades 3/4” value [3] of the same compound?
The value was 1.

What about the “Pain, Grades 3/4” value [3] of the same compound?
The value was 3.

What about the “Pneumonia, Grades 3/4” value [3] of the same compound?
The value was 3.

What about the “Thrombocytopenia, Grades 3/4” value [3] of the same compound?
Its value is 3.

What about the “Anemia, Grades 3/4” value [4] of the same compound?
Its value is 2.

And the “Decreased hemoglobin, Grades 3/4” value [4]?
Its value is 1.

What about the “Dyspnea, Grades 3/4” value [4] of the same compound?
Its value is 1.

What about the “Fatigue, Grades 3/4” value [4] of the same compound?
Its value is 1.

And the “Hypokalemia, Grades 3/4” value [4]?
Its value is 1.

What about the “Lymphopenia, Grades 3/4” value [4] of the same compound?
Its value is 2.

And the “Pain, Grades 3/4” value [4]?
The value was 0.

And the “Pneumonia, Grades 3/4” value [4]?
The value was 1.

And the “Thrombocytopenia, Grades 3/4” value [4]?
Its value is 1.

And the “Anemia, Grades 3/4” value [5]?
The value was 1.

And the “Decreased hemoglobin, Grades 3/4” value [5]?
The value was 1.

And the “Dyspnea, Grades 3/4” value [5]?
The value was 1.

What about the “Fatigue, Grades 3/4” value [5] of the same compound?
The value was 1.

And the “Hypokalemia, Grades 3/4” value [5]?
Its value is 1.

What about the “Lymphopenia, Grades 3/4” value [5] of the same compound?
Its value is 1.

What about the “Pain, Grades 3/4” value [5] of the same compound?
Its value is 0.

And the “Pneumonia, Grades 3/4” value [5]?
The value was 0.

And the “Thrombocytopenia, Grades 3/4” value [5]?
The value was 0.

And the “Grade 3/4 anemia, incidence” value (all patients, n=50)?
Its value is 28.0%.

And the “Grade 3/4 fatigue, incidence” value (all patients, n=50)?
Its value is 14.0%.

What about the “Grade 3/4 lymphopenia, incidence” value (all patients, n=50) of the same compound?
Its value is 18.0%.

And the “Grade 3/4 thrombocytopenia, incidence” value (all patients, n=50)?
The value was 20.0%.

And the “AEs leading to dose reduction” value (in vivo)?
Its value is 18.0%.

What about the “Clinical congestive heart failure” value (in vivo) of the same compound?
Its value is “four”.

What about the “Grade 3 neuropathy during the study” value (in vivo) of the same compound?
Its value is 2.0%.

And the “Serious AE acute renal failure” value (in vivo)?
The value was 6.0%.

And the “Serious AE congestive heart failure” value (in vivo)?
The value was 6.0%.

What about the “Serious AE dehydration” value (in vivo) of the same compound?
The value was 6.0%.

What about the “Serious AE pneumonia” value (in vivo) of the same compound?
The value was 16.0%.

And the “Serious AEs, patients” value (in vivo)?
Its value is 66.0%.

What about the “anemia of any grade, incidence” value (in vivo) of the same compound?
Its value is 50.0%.

What about the “diarrhea of any grade, incidence” value (in vivo) of the same compound?
The value was 36.0%.

What about the “elevations in serum creatinine from Grade ⩽2 at baseline to Grade 3 at any point after beginning treatment” value (in vivo) of the same compound?
The value was “Five”.

What about the “fatigue of any grade, incidence” value (in vivo) of the same compound?
The value was 56.0%.

What about the “incidence of treatment-emergent or worsening neuropathy of any grade” value (in vivo) of the same compound?
Its value is 12.0%.

What about the “nausea of any grade, incidence” value (in vivo) of the same compound?
The value was 36.0%.

What about the “patients with at least one treatment-emergent AE” value (in vivo) of the same compound?
The value was 94.0%.

What about the “worsening of renal function to Grade 3” value (in vivo) of the same compound?
Its value is 12.0%.

And the “Grade 3/4 infection: respiratory tract infection” value (n=2 of 50)?
Its value is 4.0%.

What about the “Grade 3/4 infection: sepsis” value (n=2 of 50) of the same compound?
The value was 4.0%.

What about the “Grade 3/4 infection: influenza” value (n=3 of 50) of the same compound?
Its value is 6.0%.

What about the “Grade 3/4 infection: bacterial pneumonia” value (n=6 of 50) of the same compound?
The value was 12.0%.

And the “deaths on study or within 30 days of discontinuation of treatment” value (n=50, all attributed primarily to disease progression)?
The value was “five”.

What about the “Serious AE influenza” value (three patients of 50) of the same compound?
The value was 6.0%.
